From article PMC8703934, “Lytic Polysaccharide Monooxygenase from Talaromyces amestolkiae with an Enigmatic Linker-like Region: The Role of This Enzyme on Cellulose Saccharification” (International Journal of Molecular Sciences, 2021)

Key:
TamAA9A-CD = target: T1, TamAA9A-CD (Talaromyces amestolkiae, UniProt A0A364LE17); assay: spectrophotometric oxidation to coerulignone at […] nm, Michaelis-Menten fit; type: biochemical; details: 2 mM H2O2 as co-substrate; copper-saturated enzyme; 100 mM sodium phosphate pH 6; substrate range 1.25-100 mM
T1 construct: gene BHQ10_010049; native signal peptide (removed), no tag mentioned; secreted from Pichia pastoris X-33; theoretical 24 kDa, about 30 kDa glycosylated; copper-saturated; mature N-terminus HGYVQN from primer

TamAA9A-CBM = target: T2, TamAA9A-CBM (Talaromyces amestolkiae, UniProt A0A364LE17); assay: as above; type: biochemical; details: 2 mM H2O2 as co-substrate; copper-saturated enzyme; 100 mM sodium phosphate pH 6; substrate range 1.25-100 mM; printed kcat/Km (0.003) does not match printed kcat and Km
T2 construct: gene BHQ10_010049; native signal peptide (removed); secreted from Pichia pastoris X-33; theoretical 34 kDa, 75-100 kDa glycosylated; copper-saturated; with Beta-glucosidase BGL-2 (CBM1 domain only)
T2 sequence (A0A364LE17 entry or part of it): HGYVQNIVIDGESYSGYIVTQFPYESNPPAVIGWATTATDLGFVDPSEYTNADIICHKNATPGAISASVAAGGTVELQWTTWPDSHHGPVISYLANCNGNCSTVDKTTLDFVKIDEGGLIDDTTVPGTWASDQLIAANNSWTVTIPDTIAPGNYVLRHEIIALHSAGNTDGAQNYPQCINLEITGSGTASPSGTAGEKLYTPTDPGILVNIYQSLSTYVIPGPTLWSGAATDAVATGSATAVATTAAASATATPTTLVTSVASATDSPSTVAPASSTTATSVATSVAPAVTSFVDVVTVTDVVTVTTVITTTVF

T1 sequence (A0A364LE17 entry or part of it): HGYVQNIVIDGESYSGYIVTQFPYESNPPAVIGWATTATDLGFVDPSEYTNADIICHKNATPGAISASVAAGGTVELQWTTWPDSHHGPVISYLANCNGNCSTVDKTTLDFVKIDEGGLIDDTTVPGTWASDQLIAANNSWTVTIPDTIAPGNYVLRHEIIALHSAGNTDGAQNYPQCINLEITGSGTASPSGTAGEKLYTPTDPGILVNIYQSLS

Question: `COc1cccc(OC)c1O` [2,6-DMP, 2,6-dimethoxyphenol] was tested. Which Km (TamAA9A-CD) did it give?
Answer: 87.7 ± 0.7 mM

Question: And the Km (TamAA9A-CBM)?
Answer: 85.68 ± 0.7 mM
